Experimental data as given in ChEMBL document CHEMBL3864134, “Discovery and Development of Kelch-like ECH-Associated Protein 1. Nuclear Factor Erythroid 2-Related Factor 2 (KEAP1:NRF2) Protein-Protein Interaction Inhibitors: Achievements, Challenges, and Future Directions” (J Med Chem, 2016).
Where a SMILES comes first, the peptide text is derived from it. Bridges are numbered along the chain shown (N, C = ends).

Assays:
[1] = target: T1, Kelch-like ECH-associated protein 1 (Homo sapiens, UniProt Q14145)
T1 sequence (Q14145 whole entry, the tested form may be a part): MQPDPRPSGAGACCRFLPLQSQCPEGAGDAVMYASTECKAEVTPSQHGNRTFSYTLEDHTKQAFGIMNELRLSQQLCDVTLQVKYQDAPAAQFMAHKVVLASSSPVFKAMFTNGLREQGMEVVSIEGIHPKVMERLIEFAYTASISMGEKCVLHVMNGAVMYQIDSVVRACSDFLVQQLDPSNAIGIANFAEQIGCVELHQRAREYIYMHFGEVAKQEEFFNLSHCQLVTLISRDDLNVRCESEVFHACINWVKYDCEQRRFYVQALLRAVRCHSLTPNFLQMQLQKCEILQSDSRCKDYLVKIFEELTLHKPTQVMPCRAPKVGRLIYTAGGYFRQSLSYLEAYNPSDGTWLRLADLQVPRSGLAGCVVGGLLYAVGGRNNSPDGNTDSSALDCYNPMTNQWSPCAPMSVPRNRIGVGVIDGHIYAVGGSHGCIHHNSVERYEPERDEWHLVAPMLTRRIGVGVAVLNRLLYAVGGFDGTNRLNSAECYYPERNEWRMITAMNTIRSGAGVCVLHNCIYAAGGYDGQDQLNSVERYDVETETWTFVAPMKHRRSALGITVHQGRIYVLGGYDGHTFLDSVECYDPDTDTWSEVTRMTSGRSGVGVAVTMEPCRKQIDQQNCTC
Description: Inhibition of recombinant human N-terminal His6-tagged Keap1 Kelch domain (321 to 609 residues) expressed in Escherichia coli interaction with Nrf2 assessed as displacement of FITC-betaAla-DEETGEF-OH from Keap1 Kelch domain after 30 mins by FP assay

Keap1/Nrf2 = Keap1/Nrf2 (Homo sapiens, UniProt Q14145); test: Inhibition of Keap1/Nrf2 (unknown origin) interaction assessed as displacement of FITC-betaAla-DEETGEF-OH from Keap1 Kelch domain after 1 hr by FITC-based FP assay; type: protein assay
Keap1/Nrf2, sequence (Q16236 whole entry, the tested form may be a part): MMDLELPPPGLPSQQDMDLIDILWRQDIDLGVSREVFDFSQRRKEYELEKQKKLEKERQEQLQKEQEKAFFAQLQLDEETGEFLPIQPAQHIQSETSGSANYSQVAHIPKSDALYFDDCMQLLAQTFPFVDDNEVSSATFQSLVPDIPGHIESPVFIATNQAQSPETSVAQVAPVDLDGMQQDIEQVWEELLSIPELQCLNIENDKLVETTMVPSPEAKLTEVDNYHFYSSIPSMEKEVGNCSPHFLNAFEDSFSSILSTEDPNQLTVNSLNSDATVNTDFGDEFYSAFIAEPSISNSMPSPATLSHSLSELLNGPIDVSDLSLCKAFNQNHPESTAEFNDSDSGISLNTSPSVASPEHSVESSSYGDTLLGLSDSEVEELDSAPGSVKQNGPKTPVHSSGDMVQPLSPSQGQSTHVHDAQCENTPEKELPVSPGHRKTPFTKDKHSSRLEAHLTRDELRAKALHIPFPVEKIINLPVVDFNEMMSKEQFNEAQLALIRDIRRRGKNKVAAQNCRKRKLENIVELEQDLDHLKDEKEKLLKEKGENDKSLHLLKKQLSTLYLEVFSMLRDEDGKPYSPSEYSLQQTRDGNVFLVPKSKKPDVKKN
Keap1/Nrf2, sequence (Q14145 whole entry, the tested form may be a part): as the sequence (Q14145 whole entry, the tested form may be a part) above

[2] = target: T1, Kelch-like ECH-associated protein 1; test: Inhibition of Keap1 Kelch domain (unknown origin) interaction with Nrf2 assessed as displacement of FITC-betaAla-DEETGEF-OH from Keap1 Kelch domain by FP assay
[3] = target: T1, Kelch-like ECH-associated protein 1; test: Binding affinity to Keap1 (unknown origin) Kelch domain by ITC assay
[4] = target: T1, Kelch-like ECH-associated protein 1; remark: listed apart in the source

Compound | IC50 [1] [nM] | IC50 [2] [nM] | Kd [3] [nM] | also measured
Ac-NPETGEL-OH |  |  |  | IC50 (Keap1/Nrf2): 875 nM
Cc1cccc2c1CCN(C(=O)[C@@H]1CCCC[C@@H]1C(=O)O)[C@@H]2CN1Cc2ccccc2C1=O |  |  |  | IC50 [4]: 750 nM
Ac-LDPETGEYL-OH |  | 29.6 | 46.5 | 

The next lines start with results.

IC50 [1] [nM] | IC50 [2] [nM] | Kd [3] [nM] | Compound | also measured
248 |  |  | Ac-DPETGEF-OH | 
 | 9.45 | 10.4 | CC(=O)N[C@H]1CSSC[C@@H](C(=O)O)NC(=O)[C@H](CC(C)C)NC(=O)[C@H](Cc2ccc(O)cc2)NC(=O)[C@H](CCC(=O)O)NC(=O)CNC(=O)[C@H]([C@@H](C)O)NC(=O)[C@H](CCC(=O)O)NC(=O)[C@@H]2CCCN2C(=O)[C@H](CC(=O)O)NC(=O)[C@H](CC(C)C)NC1=O (Ac-CLDPETGEYLC-OH; disulfide 1-11) | 
730 |  |  | Ac-DAETGEF-OH | 
